Assay results taken from US6869945B2, “Pyrrolyl-and imidazolyl-acid amide derivatives useful as inhibitors of PDE4 isozymes” (Pfizer Inc, priority 2001, dated 2005).
Entries after “also recorded” stand apart in the source; their conditions may differ.

Experiments:
[1] = in vivo; cited from earlier work
PDE4 = conditions: catalytic site (Sc); cited from earlier work
[2] = cited from earlier work
[3] = 54 subjects; cited from earlier work
[4] = tested on: rhinorrhea in the antigen-challenged pig; conditions: cited from earlier work
[5] = tested on: LPS-stimulated ex vivo TNF release and PHA induced lymphocyte proliferation; conditions: oral dose of 300 mg, cited from earlier work
guinea-pig trachea = conditions: cited from earlier work
[6] = tested on: guinea-pig macrophage PDE4; conditions: cited from earlier work
[7] = tested on: dextran sulfate induced colitis; conditions: cited from earlier work; for effects in dextran sulfate induced colitis: rat
[8] = 35 rheumatoid arthritis patients, t.i.d.; cited from earlier work
TNF-α mRNA expression = conditions: mouse, in vivo; cited from earlier work
epidermal basal cells = conditions: primary culture; cited from earlier work
[9] = in vivo; cited from earlier work; remark: listed apart in the source
[10] = tested on: psoriatic epidermal slices and keratomed psoriatic epidermal slices; conditions: cited from earlier work
[11] = tested on: human peripheral blood mononuclear cells; conditions: cited from earlier work
[12] = tested on: endotoxin-induced acute renal failure; conditions: cited from earlier work
[13] = 15 mg twice a day for six weeks; cited from earlier work
[14] = tested on: isolated pulmonary artery rings; conditions: normal rats and rats with hypoxia-induced pulmonary hypertension; cited from earlier work
[15] = tested on: experimental allergic encephalomyelitis; conditions: in vivo; cited from earlier work
[16] = tested on: collagen II induced arthritis; conditions: 2 mg/kg twice daily for five days before the onset of arthritis; cited from earlier work
[17] = tested on: croton oil-induced ear inflammation; conditions: mouse; cited from earlier work

Structure (SMILES): Nc1nc2c([nH]1)c(=O)n(CC1CC1)c(=O)n2CC1CC1 [BRL-61,063, cipamfylline]
- emesis / nausea and vomiting [1]: adverse events of nausea and vomiting

Structure (SMILES): COc1ccc([C@H](Cc2ccncc2)c2ccccc2)cc1OC1CCCC1 [CDP840]
- potency at the Sc relative to SB-207,499 (PDE4): significantly higher potency
- late reactions to inhaled allergen / late-phase response ([2]; patients with bronchial asthma, oral): suppression; also recorded: significant inhibition
- adverse events ([2]; treatment of asthma): without any adverse events of nausea or headache

Structure (SMILES): Cc1cc2c3c(c1)C(c1ccccc1)=N[C@@H](NC(=O)c1ccncc1)C(=O)N3CC2 [CI-1018]
- doses at which no adverse events were reported [3]: up to 400 mg

Structure (SMILES): CC(C)(O)c1ccc(CNC(=O)c2scnc2Oc2ccc3c(c2)OCO3)c(F)c1 [Example 5, 4-(Benzo[1,3]dioxol-5-yloxy)-thiazole-5-carboxylic acid 2-fluoro-4-(1-hydroxy-1-methyl-ethyl)-benzylamide]
- melting point: 117 to 118 °C

Structure (SMILES): CCCC1C(=O)C2=C(C(CC)=NC2C)c2nc(OC)ccc21 [Example D-22888]
- rhinorrhea ([4]; antigen-challenged pig): inhibit rhinorrhea
- anti-allergic effect ([4]; pig, in vivo): strong anti-allergic affect

Structure (SMILES): CCNc1ncn(Cc2ccc(OC)c(OC3CCCC3)c2)c2nc(C(C)C)nc1-2 [Example V-11294A]
- reduction of TNF levels ([5]; LPS-stimulated ex vivo TNF release): effective
- reduction of lymphocyte proliferation ([5]; PHA induced): effective

Structure (SMILES): O=S1(=O)CCN(c2nc(NC3CC3)nc(C3CC3)n2)C1 [Formula (0.0.56)]
- relaxant activity in a guinea-pig trachea model (guinea-pig trachea): potent relaxant agents

Structure (SMILES): CC1CC1c1nc(NC2CC2)nc(N2CCOCC2)n1 (centres unmarked) [Formula (0.0.57)]
- relaxant activity in a guinea-pig trachea model (guinea-pig trachea): potent relaxant agents

Structure (SMILES): COc1ccc(S(=O)(=O)C(CCCCc2ccccc2)CC(=O)NO)cc1OC (centres unmarked) [Formula (0.1.36)]
- IC50 [6]: 1 nM

Structure (SMILES): COc1ccc(S(=O)(=O)C(CCCCc2ccccc2)C(C)C(=O)NO)cc1 (centres unmarked) [Formula (0.1.37)]
- IC50 [6]: 30 nM

Structure (SMILES): CCCn1c(=O)c2[nH]cnc2n(-c2ccc(Cl)cc2)c1=O [LAS31025]
- effects in dextran sulfate induced colitis [7]: beneficial effects comparable to prednisolone

Structure (SMILES): COc1ccc(C(=O)Nc2c(Cl)cncc2Cl)cc1OC1CCCC1 [RP73401]
- clinical effect, with reduction in C-reactive protein and IL-6 serum levels [8]: positive trend towards clinical improvement
- TNF-α mRNA expression at the pannus/cartilage interface of paw joints (TNF-α mRNA expression): decrease

Structure (SMILES): COc1ccc(CC2CNC(=O)N2)cc1OC1CCCC1 (centres unmarked) [Ro 20-1724]
- increase in cAMP concentrations (epidermal basal cells): three-fold increase
- adverse effects [9]: without adverse systemic or cutaneous effects
- psoriatic lesions compared with vehicle [9]: improve psoriatic lesions
- cAMP concentrations over controls [10]: very marked elevation

Structure (SMILES): COc1ccc(CC2CNC(=O)N2)cc1OC1CCCC1 (centres unmarked) [Ro-201724]
- proliferation of HPBM from normal patients and subjects with atopic dermatitis [11]: concentration-related inhibition
- endotoxin-induced increases in renal vascular resistance and decreases in renal blood flow and glomerular filtration rate ([12]; post-treatment at 10 μg/kg/min): markedly attenuates
- urinary cAMP excretion ([12]; post-treatment at 10 μg/kg/min): significantly increases
- survival rates for endotoxin-treated rats ([12]; rat, in vivo): improve survival rates

Structure (SMILES): COc1ccc([C@]2(C#N)CC[C@@H](C(=O)O)CC2)cc1OC1CCCC1 [SB-207,499]
- FEV1 and forced vital capacity (FVC) [13]: increrases

Structure (SMILES): CCCn1c(=O)c2[nH]cnc2n(-c2ccc(Cl)cc2)c1=O [arofylline]
- effects in models of colitis in the rat ([7]; in vivo): beneficial effects

Structure (SMILES): CCCCn1c(=O)c2c(ncn2CC(C)=O)n(CCCC)c1=O [denbufylline]
- proliferation of HPBM from normal patients and subjects with atopic dermatitis [11]: concentration-related inhibition

Structure (SMILES): Cc1[nH]c(=O)c(C#N)cc1-c1ccncc1 [milrinone]
- effect on relaxation of pulmonary artery rings [14]: same effect

Structure (SMILES): COc1ccc(C2CNC(=O)C2)cc1OC1CCCC1 (centres unmarked) [rolipram]
- clinical signs and MRI imaging [15]: suppress the appearance of clinical signs and abolish abnormalities in MRI imaging
- proliferation of HPBM from normal patients and subjects with atopic dermatitis [11]: concentration-related inhibition
- effect on relaxation of pulmonary artery rings [14]: potentiates the relaxant activities of isoproterenol and forskolin
- appearance of arthritic symptoms [16]: significantly delayed
- effects in dextran sulfate induced colitis [7]: beneficial effects comparable to prednisolone
- lowest topical dose inhibiting croton oil-induced ear inflammation [17]: 0.03 mg per ear
